The text below walks through data of patent US11780830B2, “Triazolone derivatives or salts thereof and pharmaceutical compositions comprising the same” (YUHAN CORPORATION, priority 2018, dated 2023).

Common to all, as to format: biochemical
The target in one experiment is T1, recombinant human VAP-1 (Homo sapiens, UniProt Q16853).
T1 construct: purchased R&D systems
T1 sequence (Q16853 1-763): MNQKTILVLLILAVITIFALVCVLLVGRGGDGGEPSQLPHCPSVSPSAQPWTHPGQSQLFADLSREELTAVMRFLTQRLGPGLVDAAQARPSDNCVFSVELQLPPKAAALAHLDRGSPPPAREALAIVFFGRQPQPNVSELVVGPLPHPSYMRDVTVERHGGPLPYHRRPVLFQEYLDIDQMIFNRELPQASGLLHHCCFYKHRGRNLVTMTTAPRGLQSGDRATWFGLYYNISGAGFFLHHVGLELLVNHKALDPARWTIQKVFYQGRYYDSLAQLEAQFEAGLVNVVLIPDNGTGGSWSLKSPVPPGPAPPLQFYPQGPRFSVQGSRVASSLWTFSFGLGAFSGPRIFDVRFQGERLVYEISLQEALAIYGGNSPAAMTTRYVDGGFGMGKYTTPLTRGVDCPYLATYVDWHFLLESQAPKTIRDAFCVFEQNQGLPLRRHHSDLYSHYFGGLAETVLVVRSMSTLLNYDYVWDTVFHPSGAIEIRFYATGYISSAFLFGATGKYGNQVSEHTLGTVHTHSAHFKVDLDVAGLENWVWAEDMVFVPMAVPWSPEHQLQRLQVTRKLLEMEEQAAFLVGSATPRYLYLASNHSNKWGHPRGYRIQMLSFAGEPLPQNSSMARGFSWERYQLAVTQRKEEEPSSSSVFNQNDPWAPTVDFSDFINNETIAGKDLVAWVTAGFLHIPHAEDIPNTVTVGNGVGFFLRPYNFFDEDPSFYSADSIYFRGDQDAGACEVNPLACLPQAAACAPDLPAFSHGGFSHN
Description: Activity on recombinant human VAP-1, HRP-coupled Amplex Red hydrogen peroxide assay. The note with it: substrate 1 mM benzylamine; compound incubated with enzyme at 37° C. for 30 minutes; pH 7.4; read-out: Inhibitory Activity (IC50, nM) human VAP-1. A digest of the protocol: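 H2O2 generation from 1 mM benzylamine was coupled via 1 U/mL HRP to 200 uM Amplex Red; inhibitors, serially diluted 1:3 over 8 points with under 1% final DMSO, had been preincubated 30 min at 37 °C. IC50 from percentage drop in rate.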

In experiment [1] the target is T2, recombinant human MAO-A (monoamine oxidase-A) (Homo sapiens, UniProt P21397).
T2 construct: purchased Sigma-Aldrich
T2 sequence (P21397 1-527): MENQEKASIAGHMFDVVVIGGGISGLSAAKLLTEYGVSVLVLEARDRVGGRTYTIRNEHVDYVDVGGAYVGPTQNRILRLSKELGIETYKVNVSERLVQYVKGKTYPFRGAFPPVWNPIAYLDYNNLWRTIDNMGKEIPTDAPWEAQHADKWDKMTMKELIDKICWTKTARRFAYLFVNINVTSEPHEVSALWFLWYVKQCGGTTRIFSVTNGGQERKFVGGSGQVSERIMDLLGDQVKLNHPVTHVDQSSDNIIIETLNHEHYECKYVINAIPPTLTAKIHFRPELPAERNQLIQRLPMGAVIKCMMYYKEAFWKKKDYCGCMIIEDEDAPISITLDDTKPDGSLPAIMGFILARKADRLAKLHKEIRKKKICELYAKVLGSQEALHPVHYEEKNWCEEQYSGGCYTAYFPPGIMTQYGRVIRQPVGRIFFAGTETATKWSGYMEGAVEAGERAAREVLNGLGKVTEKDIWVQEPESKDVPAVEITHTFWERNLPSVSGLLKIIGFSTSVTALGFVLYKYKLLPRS
Nature of the experiment: Activity on recombinant human MAO-A, method similar to the VAP-1 assay. The following applies: substrate 0.5 mM tyramine; read-out: Inhibitory Activity (IC50, nM) MAO-A. Put shortly:
(§1)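 First, serially diluted compounds were incubated with recombinant enzyme in 50 mM sodium phosphate, pH 7.4, for 30 min at 37° C. Next, Amplex Red (200 uM), HRP (1 U/mL) and tyramine (0.5 mM, MAO-A) or benzylamine (1 mM, MAO-B) were added. Then fluorescence was monitored over 1-2 h and IC50 fitted.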

The target of experiment [2] is T3, recombinant human MAO-B (monoamine oxidase-B) (Homo sapiens, UniProt P27338).
T3 construct: purchased Sigma-Aldrich
T3 sequence (P27338 1-520): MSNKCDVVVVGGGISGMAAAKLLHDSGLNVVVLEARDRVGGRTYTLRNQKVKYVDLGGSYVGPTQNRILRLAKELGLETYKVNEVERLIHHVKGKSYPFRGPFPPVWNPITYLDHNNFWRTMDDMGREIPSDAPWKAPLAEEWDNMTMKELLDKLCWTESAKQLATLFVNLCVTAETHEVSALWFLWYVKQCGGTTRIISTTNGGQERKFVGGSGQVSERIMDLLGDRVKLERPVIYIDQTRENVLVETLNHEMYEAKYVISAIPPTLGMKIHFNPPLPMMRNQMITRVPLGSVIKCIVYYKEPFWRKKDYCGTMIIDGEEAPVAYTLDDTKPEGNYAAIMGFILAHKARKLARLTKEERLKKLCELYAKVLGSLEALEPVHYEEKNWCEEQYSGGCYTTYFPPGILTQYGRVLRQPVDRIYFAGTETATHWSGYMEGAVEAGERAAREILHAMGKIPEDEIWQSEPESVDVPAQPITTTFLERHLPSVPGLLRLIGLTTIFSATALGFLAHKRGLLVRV
Nature of the experiment: Activity on recombinant human MAO-B, method similar to the VAP-1 assay. The note with it: substrate 1 mM benzylamine; read-out: Inhibitory Activity (IC50, nM) MAO-B. A digest of the protocol: as §1

The target of experiment [3] is T4, recombinant human DAO (diamine oxidase) (Homo sapiens, UniProt P19801).
T4 construct: purchased R&D systems
T4 sequence (P19801 20-751): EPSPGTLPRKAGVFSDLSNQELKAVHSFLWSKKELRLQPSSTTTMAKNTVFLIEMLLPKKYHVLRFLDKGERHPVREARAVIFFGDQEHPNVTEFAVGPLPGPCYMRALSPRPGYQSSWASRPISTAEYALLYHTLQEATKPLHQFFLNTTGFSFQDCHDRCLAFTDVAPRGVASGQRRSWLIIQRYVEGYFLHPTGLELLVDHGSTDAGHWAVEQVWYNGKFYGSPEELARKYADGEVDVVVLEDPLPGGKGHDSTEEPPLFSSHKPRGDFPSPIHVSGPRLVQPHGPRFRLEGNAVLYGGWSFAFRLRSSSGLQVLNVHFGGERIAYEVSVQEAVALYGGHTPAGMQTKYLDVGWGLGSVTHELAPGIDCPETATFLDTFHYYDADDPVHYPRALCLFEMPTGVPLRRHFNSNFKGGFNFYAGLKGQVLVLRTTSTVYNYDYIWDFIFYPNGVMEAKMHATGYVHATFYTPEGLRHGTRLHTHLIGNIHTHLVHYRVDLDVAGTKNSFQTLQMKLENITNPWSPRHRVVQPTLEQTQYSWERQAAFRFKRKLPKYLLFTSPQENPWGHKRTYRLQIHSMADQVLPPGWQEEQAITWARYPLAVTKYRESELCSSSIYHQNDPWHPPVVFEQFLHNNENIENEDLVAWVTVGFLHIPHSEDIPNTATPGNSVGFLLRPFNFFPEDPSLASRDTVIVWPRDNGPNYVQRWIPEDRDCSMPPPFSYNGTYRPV
Description: Activity on recombinant human DAO, method similar to the VAP-1 assay. The note with it: substrate 1 mM putrescine; read-out: Inhibitory Activity (IC50, nM) DAO. A digest of the protocol:
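Inhibition of recombinant human diamine oxidase (DAO, R&D systems) was assessed by the same approach as the VAP-1 assay, using 1 mM putrescine as substrate. Hydrogen peroxide formed was detected through an HRP-coupled Amplex Red reaction yielding fluorescent resorufin, read at 544 nm excitation and 590 nm emission. IC50 values came from four-parameter logistic fitting in GraphPad Prism.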

Where a name gives a salt, the structure may show the parent alone.

For the compound `NC/C(=C\F)Cn1ncn(Cc2ccc(Br)s2)c1=O` [Example 2, 2-[(2E)-2-(aminomethyl)-3-fluoroprop-2-en-1-yl]-4-[(5-bromothiophen-2-yl)methyl]-2,4-dihydro-3H-1,2,4-triazol-3-one hydrochloride], the IC50 at recombinant human VAP-1 was 5.2 nM; in experiment [1] it was greater than 100000 nM; in experiment [2] it was 14 nM; in experiment [3], 3300 nM.
Take `CC(=O)c1ccc(-c2ccc(Cn3cnn(C/C(=C/F)CN)c3=O)s2)cc1` [Example 180, 4-{[5-(4-acetylphenyl)thiophen-2-yl]methyl}-2-[(2E)-2-(aminomethyl)-3-fluoroprop-2-en-1-yl]-2,4-dihydro-3H-1,2,4-triazol-3-one]: the IC50 was 0.9 nM on recombinant human VAP-1, greater than 100000 nM in experiment [1], 410 nM in experiment [2] and 1200 nM in experiment [3].
On the same counts, the results for `CC(C)c1nc(-c2cccc(-c3ccc(Cn4cnn(C/C(=C/F)CN)c4=O)s3)c2)no1` [Example 38, 2-[(2E)-2-(aminomethyl)-3-fluoroprop-2-en-1-yl]-4-[(5-3-[5-(propan-2-yl)-1,2,4-oxadiazol-3-yl]phenylthiophen-2-yl)methyl]-2,4-dihydro-3H-1,2,4-triazol-3-one hydrochloride] are 2.8 nM, 7900 nM, 1030 nM and 2400 nM.
As for `CCn1cc(-c2ccc(Cn3cnn(C/C(=C/F)CN)c3=O)s2)cn1` [Example 153, 2-[(2E)-2-(aminomethyl)-3-fluoroprop-2-en-1-yl]-4-{[5-(1-ethyl-1H-pyrazol-4-yl)thiophen-2-yl]methyl}-2,4-dihydro-3H-1,2,4-triazol-3-one], the IC50 on recombinant human VAP-1 was 1.3 nM; in experiment [1], greater than 100000 nM; in experiment [2], 1900 nM; in experiment [3], 4700 nM.
In the case of `NC/C(=C\F)Cn1ncn(Cc2ccc(C#Cc3cnc4c(c3)OCCN4)s2)c1=O` [Example 137, 2-[(E)-2-(aminomethyl)-3-fluoro-allyl]-4-[[5-[2-(3,4-dihydro-2H-pyrido[3,2-b][1,4]oxazin-7-yl)ethynyl]-2-thienyl]methyl]-1,2,4-triazol-3-one], the IC50 at recombinant human VAP-1 is 1.4 nM; in experiment [1] it was greater than 100000 nM; in experiment [2], 390 nM; in experiment [3] it was 1400 nM.
On the same counts, the results for `N#Cc1ccc(-c2ccc(Cn3cnn(C/C(=C/F)CN)c3=O)s2)cn1` [Example 50, 5-[5-(1-[(2E)-2-(aminomethyl)-3-fluoroprop-2-en-1-yl]-5-oxo-1,5-dihydro-4H-1,2,4-triazol-4-ylmethyl)thiophen-2-yl]pyridine-2-carbonitrile hydrochloride] are 0.5 nM, greater than 100000 nM, 3700 nM and 360 nM.
For `Cn1nc(C(F)(F)F)cc1-c1ccc(Cn2cnn(C/C(=C/F)CN)c2=O)s1` [Example 162, 2-[(2E)-2-(aminomethyl)-3-fluoroprop-2-en-1-yl]-4-({5-[1-methyl-3-(trifluoromethyl)-1H-pyrazol-5-yl]thiophen-2-yl}methyl)-2,4-dihydro-3H-1,2,4-triazol-3-one], the IC50 at recombinant human VAP-1 was 3.2 nM; in experiment [1], greater than 100000 nM; in experiment [2], 250 nM; in experiment [3], 250 nM.
Consider `NC/C(=C\F)Cn1ncn(Cc2ccc(-c3ccc4c(c3)NC(=O)OC4)s2)c1=O` [Example 100, 7-[5-(1-[(2E)-2-(aminomethyl)-3-fluoroprop-2-en-1-yl]-5-oxo-1,5-dihydro-4H-1,2,4-triazol-4-ylmethyl)thiophen-2-yl]-1,4-dihydro-2H-3,1-benzoxazin-2-one hydrochloride], for which the IC50 at recombinant human VAP-1 is 0.1 nM; in experiment [1], greater than 100000 nM; in experiment [2] it was 810 nM; in experiment [3], 140 nM.
In the case of `CS(=O)(=O)c1cccc(-c2ccc(Cn3cnn(C/C(=C/F)CN)c3=O)s2)c1` [Example 181, 2-[(2E)-2-(aminomethyl)-3-fluoroprop-2-en-1-yl]-4-({5-[3-(methylsulfonyl)phenyl]thiophen-2-yl}methyl)-2,4-dihydro-3H-1,2,4-triazol-3-one], the IC50 on recombinant human VAP-1 is 1.5 nM; in experiment [1], greater than 100000 nM; in experiment [2], 250 nM; in experiment [3], 760 nM.
As to `NC/C(=C\F)Cn1ncn(Cc2ccc(-c3cc4c(cc3F)OCC(=O)N4)s2)c1=O` [Example 93, 6-[5-(1-[(2E)-2-(aminomethyl)-3-fluoroprop-2-en-1-yl]-5-oxo-1,5-dihydro-4H-1,2,4-triazol-4-ylmethyl)thiophen-2-yl]-7-fluoro-2H-1,4-benzoxazin-3(4H)-one hydrochloride], the IC50 on recombinant human VAP-1 was determined as 0.4 nM; in experiment [1], 54000 nM; in experiment [2] it was 1100 nM; in experiment [3], 230 nM.

The term IC50 denotes the point on the concentration scale where inhibition reaches its midpoint.
